Structures are written as SMILES.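 Growth conditions: 96-well plates. Treatment: test compound, 48 hours, 5 concentrations. Analysis: linear interpolation between bracketing concentrations; unreached endpoints set to highest concentration. The concentration for 50% growth inhibition is given as GI50. TGI: concentration producing complete growth inhibition.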

This is an account of results in PubChem BioAssay (NCI).

Test systems include HCC-2998 colon; HCT-116 colon; HOP-62 NSCLC; HOP-92 NSCLC; K-562 leukemia; KM12 colon; M14 melanoma; NCI-H226 lung; SNB-19 CNS; T-47D breast.
Common to all, as to assay: NCI anticancer screen, dose series, 48 h

Take `CNC(=O)c1ccc(N2C(=S)N(c3ccc(C#N)c(C(F)(F)F)c3)C(=O)C2(C)C)cc1F`: the GI50 is greater than 40.7 µM in the test on HCC-2998 colon; 23.9 µM with HCT-116 colon; 25.1 µM in the test with HOP-62 NSCLC; 16.5 µM in the test with HOP-92 NSCLC; 33.9 µM in the test with K-562 leukemia; 48.1 µM with KM12 colon. Further, the GI50 was 32.4 µM in the test on M14 melanoma, 39.7 µM in the test with NCI-H226 lung, greater than 61.2 µM in the test on SNB-19 CNS and 27.9 µM in the test with T-47D breast. In addition, the TGI is greater than 65.8 µM in the test with HCC-2998 colon; greater than 58.2 µM in the test on HCT-116 colon; greater than 67.2 µM with HOP-62 NSCLC; greater than 48.9 µM with HOP-92 NSCLC; greater than 100 µM in the test on K-562 leukemia; greater than 91.1 µM in the test on KM12 colon. Also, the TGI in the test on M14 melanoma is greater than 65.3 µM; in the test with NCI-H226 lung, greater than 71.9 µM; in the test on SNB-19 CNS it was greater than 100 µM; in the test with T-47D breast, 97 µM.

For the compound `c1ccc2c(NCCCCCCNc3c4ccccc4nc4ccccc34)c3ccccc3nc2c1`, the TGI is 1.76 µM in the test on HCC-2998 colon; 0.693 µM with HCT-116 colon; 2.21 µM in the test on HOP-62 NSCLC; 1.97 µM with HOP-92 NSCLC; greater than 100 µM with K-562 leukemia; 1.81 µM with KM12 colon. For the same compound, the TGI came to 2.58 µM in the test with M14 melanoma, 3.54 µM with NCI-H226 lung, 4.92 µM in the test with SNB-19 CNS and 12.5 µM with T-47D breast.

In the case of `CNC(=S)NC(=O)c1c(Cl)n(C(=O)OC(C)(C)C)c2ccccc12`, the GI50 was 27.6 µM in the test on HCC-2998 colon; 38.5 µM with HCT-116 colon; greater than 100 µM in the test on HOP-62 NSCLC; 15.1 µM in the test on HOP-92 NSCLC; greater than 100 µM with K-562 leukemia; 77.4 µM in the test on KM12 colon. Moreover, the GI50 in the test on M14 melanoma is 83 µM; in the test with NCI-H226 lung, greater than 100 µM; in the test on SNB-19 CNS it was 79.9 µM; in the test with T-47D breast it was 44.1 µM. The TGI with HCC-2998 colon is greater than 100 µM; with HCT-116 colon it was greater than 100 µM; in the test on HOP-62 NSCLC, greater than 100 µM; in the test on HOP-92 NSCLC, 85.1 µM; in the test on K-562 leukemia, greater than 100 µM; in the test with KM12 colon it was greater than 100 µM. In addition, the TGI in the test on M14 melanoma, in the test on NCI-H226 lung, with SNB-19 CNS and in the test on T-47D breast was greater than 100 µM in each case.

As for `COc1cc(N2CCC(N3CCN(C)CC3)CC2)ccc1Nc1ncnc(Nc2ccccc2S(=O)(=O)C(C)C)n1`, the GI50 in the test with HCC-2998 colon was 13.2 µM; with HCT-116 colon it was 4.94 µM; with HOP-62 NSCLC it was 2.29 µM; in the test with HOP-92 NSCLC, 0.467 µM; with K-562 leukemia, 10.6 µM; in the test with KM12 colon it was 6.76 µM. For the same compound, the GI50 in the test with M14 melanoma was 4.07 µM; in the test with NCI-H226 lung, 2.19 µM; in the test on SNB-19 CNS it was 4.98 µM; in the test on T-47D breast, 5.18 µM. Also, the TGI came out at 36.9 µM with HCC-2998 colon; 22.7 µM in the test with HCT-116 colon; 11.1 µM with HOP-62 NSCLC; 2.03 µM in the test on HOP-92 NSCLC; 73.7 µM with K-562 leukemia; 27.6 µM in the test on KM12 colon. Further, the TGI with M14 melanoma was 16.6 µM; with NCI-H226 lung, 17.5 µM; with SNB-19 CNS, greater than 69.3 µM; with T-47D breast, 39.9 µM.

`COc1ccc(NC([Se])=NC23CC4CC(CC(C4)C2)C3)cc1`: the GI50 in the test on HCC-2998 colon was 2.86 µM; in the test with HCT-116 colon, 1.28 µM; with HOP-62 NSCLC it was 2.24 µM; in the test on HOP-92 NSCLC it was 2.34 µM; with K-562 leukemia, 0.542 µM; with KM12 colon, 1.85 µM. Also, the GI50 was 1.37 µM with M14 melanoma, 1.25 µM in the test with NCI-H226 lung, 1.86 µM in the test on SNB-19 CNS and 1.88 µM in the test on T-47D breast. Moreover, the TGI in the test on HCC-2998 colon amounted to 8.5 µM; in the test with HCT-116 colon it was 2.78 µM; with HOP-62 NSCLC it was 9.49 µM; in the test with HOP-92 NSCLC, 14.2 µM; in the test with K-562 leukemia, 18.8 µM; in the test on KM12 colon, 5.54 µM. In addition, the TGI with M14 melanoma worked out at 3.29 µM; in the test on NCI-H226 lung it was 5.26 µM; with SNB-19 CNS it was 50.6 µM; in the test with T-47D breast, 4.89 µM.

As for `O=c1ccs[nH]1`, the TGI with HCC-2998 colon was 8.02 µM; in the test on HCT-116 colon, 38.3 µM; in the test with HOP-62 NSCLC it was 38.6 µM; in the test on HOP-92 NSCLC, 32.2 µM; in the test with K-562 leukemia, 64.6 µM; in the test on KM12 colon, 62.1 µM. Also, the TGI in the test on M14 melanoma was 26.2 µM; in the test on NCI-H226 lung, 71.6 µM; with SNB-19 CNS, greater than 89.1 µM; in the test on T-47D breast, 55.5 µM.
